According to ChEMBL document CHEMBL2157967, “Chemotherapy of leishmaniasis. Part XI: synthesis and bioevaluation of novel isoxazole containing heteroretinoid and its amide derivatives” (2012):
Active and inactive are the calls of the source. No cut-off for these calls is given here.

test system: Leishmania donovani; test: Antileishmanial activity against Leishmania donovani MHOM/IN/80/Dd8 amastigotes infected in golden hamster assessed as inhibition of parasite growth at 50 mg/kg, ip for 5 days post infection measured on day 7 by Giemsa staining; format: functional; details: not given

Row | Compound | growth inhibition (GI)
1 | CC1=CCCC(C)(C)C1/C=C/c1cc(C(=O)N2CCN(c3ccccc3)CC2)no1 (stereo not given) | inactive
2 | Sodium stibogluconate | 89%
3 | CC1=CCCC(C)(C)C1/C=C/c1cc(C(=O)N2CCOCC2)no1 (stereo not given) | inactive
4 | CCOC(=O)C(=O)CC(=O)/C=C/C1C(C)=CCCC1(C)C (stereo not given) | inactive

same assay, conditions: Leishmania donovani, MHOM/IN/80/Dd8, ip, route intraperitoneal, read-out: GI

Row | Compound | inhibition in vivo at 50 mg/kg
5 | CC1=CCCC(C)(C)C1/C=C/c1cc(C(=O)Nc2ccccc2)no1 (stereo not given) | 74%
6 | CC1=CCCC(C)(C)C1/C=C/c1cc(C(=O)NC2CCCCC2)no1 (stereo not given) | 70%
7 | CC1=CCCC(C)(C)C1/C=C/c1cc(C(=O)NO)no1 (stereo not given) | 65%
8 | NC[C@@H]1O[C@H](O[C@H]2[C@@H](O)[C@H](O[C@@H]3[C@@H](O)[C@H](N)C[C@H](N)[C@H]3O[C@H]3O[C@H](CO)[C@@H](O)[C@H](O)[C@H]3N)O[C@@H]2CO)[C@H](N)[C@@H](O)[C@@H]1O [PAROMOMYCIN] | 46.7%
9 | CC1=CCCC(C)(C)C1/C=C/c1cc(C(=O)Nc2ccc(Cl)cc2)no1 (stereo not given) | 63%
10 | CC1=CCCC(C)(C)C1/C=C/c1cc(C(=O)NN)no1 (stereo not given) | 50%
11 | CC1=CCCC(C)(C)C1/C=C/c1cc(C(=O)O)no1 (stereo not given) | 45%
12 | CCOC(=O)c1cc(/C=C/C2C(C)=CCCC2(C)C)on1 (stereo not given) | 76%
13 | COc1ccc(NC(=O)c2cc(/C=C/C3C(C)=CCCC3(C)C)on2)cc1 (stereo not given) | 58%

same assay, conditions: route intraperitoneal

Row | Compound | growth inhibition (GI)
14 | CC1=CCCC(C)(C)C1/C=C/c1cc(C(=O)[N-]N)no1.[Na+] (stereo not given) | 70%
15 | CC1=CCCC(C)(C)C1/C=C/c1cc(C(=O)N[O-])no1.[Na+] (stereo not given) | 71%
